{"source": "PubChem BioAssay AID1996", "data": [{"settings": "buffer; pH 7.4; 200.0 µM", "units": {"solubility kinetic": "µg/mL"}, "values": [{"smiles": "O=C(NC1CCCN(Cc2ccccc2F)C1)C1CCC1", "note": "(stereo not given)", "solubility kinetic": "> 43.6"}, {"smiles": "O=C(COc1ccc(S(=O)(=O)N2CCCCC2)cc1)N1CCCC1", "solubility kinetic": "> 52.9"}, {"smiles": "Cc1ccccc1C(=O)NNC(=O)c1cccn1C", "solubility kinetic": "> 38.6"}, {"smiles": "Cc1ccc(CC2CC(=O)N(c3cc(C)ccc3C)C2=O)cc1", "note": "(stereo not given)", "solubility kinetic": 33.9}, {"smiles": "COc1ccccc1N1C(=O)C2C3C=CC(CC3)C2C1=O", "note": "(stereo not given)", "solubility kinetic": 30.7}, {"smiles": "O=[N+]([O-])c1ccc(CNc2ccc(Cl)cc2)s1", "solubility kinetic": 6.5}, {"smiles": "COC(=O)c1c(C)[nH]c(C(=O)/C=C/c2ccccc2F)c1C", "solubility kinetic": 0.8}, {"smiles": "Cc1cccc(NC(=O)c2ccc3nccnc3c2)c1C", "solubility kinetic": 37.1}, {"smiles": "Cn1c(O)c(/C=N/NC(=O)c2ccncc2)c(=O)n(C)c1=S", "solubility kinetic": "> 47.9"}, {"smiles": "Cc1ccc(CNC(=O)C(C)C2Sc3ccccc3NC2=O)cc1", "note": "(stereo not given)", "solubility kinetic": 1.6}, {"smiles": "Cc1ccnc(N2CCCC(C(=O)NC3CC3)C2)n1", "note": "(stereo not given)", "solubility kinetic": 37.3}, {"smiles": "CN(C)/C=C1\\C(=O)Oc2ccccc2C1=O", "solubility kinetic": 32.4}, {"smiles": "O=C(Nc1ccccc1O)c1ccc(NC(=O)C2CC2)cc1", "solubility kinetic": 1.9}, {"smiles": "O=C(COC(=O)Cc1cccc(C(F)(F)F)c1)NC(=O)NC1CCCC1", "solubility kinetic": 32.1}, {"smiles": "CCN(CC)c1ccc(C(=S)NC2CCCCC2)cc1", "solubility kinetic": 2}, {"smiles": "Brc1cc2c(cc1CSc1ncccn1)OCO2", "solubility kinetic": 0.9}, {"smiles": "Cc1ccc(SCCNC(=O)c2ccccc2F)cc1", "solubility kinetic": 27.8}, {"smiles": "Brc1ccc(COn2ccnc2)cc1", "solubility kinetic": "> 38"}, {"smiles": "CN(c1ccccc1)S(=O)(=O)c1cccc(NC(=O)CCNC(=O)c2ccc([N+](=O)[O-])cc2)c1", "solubility kinetic": 13}, {"smiles": "Cc1ccc(C(=O)NCCNS(=O)(=O)c2ccccc2[N+](=O)[O-])cc1", "solubility kinetic": "> 54.5"}, {"smiles": "CCN(CC)c1ccc(NC(=O)C2CCCC2)cc1", "solubility kinetic": 35.4}, {"smiles": "COc1ccc(CCNC(=O)COC(=O)Cc2ccccc2F)cc1", "solubility kinetic": "> 51.8"}, {"smiles": "CS(=O)(=O)N1CCCC(C(=O)Nc2ccccc2C(F)(F)F)C1", "note": "(stereo not given)", "solubility kinetic": "> 52.6"}, {"smiles": "O=C(NC(=O)N1CCCCC1)c1ccc(Cl)cc1", "solubility kinetic": "> 40"}, {"smiles": "O=C(Cc1c(F)cccc1Cl)OCC(=O)N1CCc2ccccc21", "solubility kinetic": 9.5}, {"smiles": "O=C1CN(C(=O)COC(=O)c2ccc(Cl)c(S(=O)(=O)N3CCCCC3)c2)c2ccccc2N1", "solubility kinetic": 4.7}, {"smiles": "Cc1cccc(Nc2nc(C)nc3c2oc2ccccc23)c1.Cl", "solubility kinetic": 1.1}, {"smiles": "OCc1ccnc2oc3ccccc3c12", "solubility kinetic": 28.8}, {"smiles": "Cc1ccc(-c2cn3cc(C)ccc3n2)cc1", "solubility kinetic": 1.6}, {"smiles": "Cc1ccc(OCC(=O)N(Cc2ccccc2)c2ccccn2)cc1", "solubility kinetic": 49.6}, {"smiles": "COc1ccc(S(=O)(=O)N2CCc3ccccc32)cc1C(=O)N1CCC(C)CC1", "solubility kinetic": 57.8}, {"smiles": "Cc1nc2ccccc2c(=O)n1-c1ccc(Cl)c(Cl)c1", "solubility kinetic": 44}, {"smiles": "CC1(C)CC(=O)C=C(NCc2cccc(C(F)(F)F)c2)C1", "solubility kinetic": "> 44.6"}, {"smiles": "Cc1cnc(SCc2cnc(C)nc2N)nc1", "solubility kinetic": "> 37.1"}, {"smiles": "CSc1ccccc1-c1nc(-c2ccncc2)no1", "solubility kinetic": 1.2}, {"smiles": "Cc1cccc(S(=O)(=O)Nc2ccncc2)c1", "solubility kinetic": 28.1}, {"smiles": "O=C(/C=C/c1ccc([N+](=O)[O-])cc1)NCCOc1ccc(F)cc1", "solubility kinetic": 4}, {"smiles": "O=C(CCSCc1ccccc1F)NCc1cccnc1", "solubility kinetic": "> 45.7"}, {"smiles": "O=C(COC(=O)/C=C/c1cccc(F)c1)Nc1ncccn1", "solubility kinetic": 27.7}, {"smiles": "Cc1nc2cc(N)ccc2n1C1CCCCC1.Cl", "solubility kinetic": "> 45.3"}, {"smiles": "C=CCc1ccccc1OCC(O)CN1C(=O)c2ccccc2C1=O", "note": "(stereo not given)", "solubility kinetic": 46}, {"smiles": "Cc1cccc(NC(=O)CC(=O)Nc2cccc(C)c2)c1", "solubility kinetic": 5.7}, {"smiles": "O=C(NC(=O)c1ccccc1)Nc1ccc(Cl)cn1", "solubility kinetic": "< 0.2"}, {"smiles": "O=C(O)c1ccc(Cl)c(S(=O)(=O)Nc2ccc(S(=O)(=O)N3CCCC3)cc2)c1", "solubility kinetic": "> 66.7"}, {"smiles": "CC(C)(C)NC(=O)C1CCC(CNc2c(N3CCCCC3)c(=O)c2=O)CC1", "note": "(stereo not given)", "solubility kinetic": "> 56.3"}, {"smiles": "N/C(=N\\OC(=O)c1ccccc1F)c1ccc([N+](=O)[O-])cc1", "solubility kinetic": 2.3}, {"smiles": "O=C(NC1CCN(c2ncccn2)CC1)c1c(F)cccc1F", "solubility kinetic": "> 47.7"}, {"smiles": "Cc1cc(NC(=O)c2ccco2)c(=O)n(Cc2c(F)cccc2Cl)c1", "solubility kinetic": "< 0.4"}, {"smiles": "Cc1cccc(NC(=O)c2ccco2)c1C(=O)O", "solubility kinetic": 34.8}, {"smiles": "Cc1cc2ccccc2cc1CN1CCCCC1", "solubility kinetic": 9.6}, {"smiles": "CCOc1ccc(NC(=O)C(=O)NCc2ccncc2)cc1", "solubility kinetic": 12.5}, {"smiles": "CCOC(=O)c1cc(NC(=O)c2cccnc2)ccn1", "solubility kinetic": 37.1}, {"smiles": "O=C(O)C1CCC(N2C(=O)c3cccc([N+](=O)[O-])c3C2=O)CC1", "note": "(stereo not given)", "solubility kinetic": "> 47.7"}, {"smiles": "COC(=O)c1cccnc1Oc1ccccc1", "solubility kinetic": 26.5}, {"smiles": "NC(=O)c1cc(S(=O)(=O)NCCc2ccccc2)cs1", "solubility kinetic": 40.3}, {"smiles": "O=C(/C=C/c1ccccc1)Nc1cccnc1Cl", "solubility kinetic": 38.8}, {"smiles": "O=C(Nc1ccc(N2CCCCC2)cc1)c1ccc([N+](=O)[O-])o1", "solubility kinetic": 6.9}, {"smiles": "CC(=O)Nc1ccc2c(c1)C(=O)N(c1cccc3ccccc13)C2=O", "solubility kinetic": 8.2}, {"smiles": "CN1C(=S)SC(/[N+]([O-])=C/c2ccc(Cl)cc2)C1(C)C", "note": "(stereo not given)", "solubility kinetic": 15.7}, {"smiles": "CCCCNC(=S)N1CCN(c2nc3ccccc3s2)CC1", "solubility kinetic": 0.9}, {"smiles": "O=S(=O)(Nc1ccccc1O)c1ccc(Cl)nc1", "solubility kinetic": 35.6}, {"smiles": "COc1ccc(CNC(=O)CCc2c[nH]c3ccccc23)cc1", "solubility kinetic": 24.6}, {"smiles": "CC(=O)c1ccc2c(c1)c(C#N)c1ccccc1[n+]2[O-]", "solubility kinetic": 1.7}, {"smiles": "Nc1ncnc2nc(SCCC(=O)O)[nH]c12", "solubility kinetic": "> 35.9"}, {"smiles": "CC(=O)NC1(C(F)(F)F)NC(=O)N(c2ccc(F)cc2)C1=O", "note": "(stereo not given)", "solubility kinetic": "> 47.9"}, {"smiles": "COc1cc(/C=C/C(=O)Nc2ccc(OC)c(S(=O)(=O)N3CCOCC3)c2)ccc1OC(F)F", "solubility kinetic": 2.6}, {"smiles": "CC(C)CNC(=O)CN1c2cccc3cccc(c23)S1(=O)=O", "solubility kinetic": "> 47.8"}, {"smiles": "COc1ccc2c(c1)[nH]c1c(N3CCSCC3)ncnc12", "solubility kinetic": 11.5}, {"smiles": "CC(=O)c1cccc(NC(=O)c2ccccc2-c2ccccc2C(=O)O)c1", "solubility kinetic": "> 53.9"}, {"smiles": "CN1C(C)(C)CC(NC(=O)c2ccco2)CC1(C)C", "solubility kinetic": "> 39.7"}, {"smiles": "CCOC(=O)N1CCc2c(sc3nc[nH]c(=O)c23)C1", "solubility kinetic": 38.9}, {"smiles": "COC(=O)/C(=C\\C=C\\c1ccccc1)NC(=O)c1ccccc1", "solubility kinetic": 6.3}, {"smiles": "Cc1cccc(NC(=O)C(Cc2ccccc2)n2cccc2)c1", "note": "(stereo not given)", "solubility kinetic": 11.6}, {"smiles": "COc1ccc(CCC(=O)N2CCN(c3ccc(OC)cc3)CC2)cc1", "solubility kinetic": 41}, {"smiles": "CCCc1cc(=O)[nH]c(SCC(=O)NCCN2C(=O)CSC2=O)n1", "solubility kinetic": "> 55.6"}, {"smiles": "COc1ccccc1NS(=O)(=O)c1ccc2ccccc2c1", "solubility kinetic": 12.1}, {"smiles": "Cl.O=C(NC12CC3CC(CC(C3)C1)C2)OC1CN2CCC1CC2", "note": "(stereo not given)", "solubility kinetic": 47.7}, {"smiles": "COc1ccc(-c2cc(C(=O)N3CCCCCC3)no2)cc1", "solubility kinetic": 4}, {"smiles": "Cc1cccc(C)c1NC(=O)CSc1n[nH]c(=O)n1C1CC1", "solubility kinetic": "> 47.8"}, {"smiles": "Cc1cc(C)c2nc(NCc3ccccc3O)sc2c1", "solubility kinetic": "< 0.3"}, {"smiles": "N#CCN1C(=O)C(=O)N(Cc2cccc(C(F)(F)F)c2)C1=O", "solubility kinetic": 42.6}, {"smiles": "O=C(c1ccccc1Oc1ccc([N+](=O)[O-])cc1)N1CCOCC1", "solubility kinetic": "> 49.2"}, {"smiles": "CNC(=O)c1cc(OCC(F)(F)F)ccc1OCC(F)(F)F", "solubility kinetic": 49.6}, {"smiles": "CCCCN1C(=O)C(=O)N(CC(=O)NC2CCCc3ccccc32)C1=O", "note": "(stereo not given)", "solubility kinetic": 50.9}, {"smiles": "COc1cccc(N2CCN(C(=O)/C=C/c3ccco3)CC2)c1", "solubility kinetic": 44.6}]}]}
